In the NIST ThermoML archive (doi:10.1021/acs.jced.7b01006):

Assay: xn = mol fraction of the nth substance listed
Conditions: 100 kPa, Liquid; for electrical conductivity: Alternating current cell with electrodes; for viscosity: Falling or rolling sphere viscometry; for mass density: Vibrating tube method

CCC[n+]1ccn(C)c1C.N#C[S-] [1,2-dimethyl-3-propylimidazolium thiocyanate] + CC#N
Conditions | electrical conductivity [S/m] | mass density [kg/m3] | viscosity [mPa·s]
288.15 K, x1 = 0.1002 | 5.17 | 884.48 | 7.694
288.15 K, x1 = 0.2002 | 4.31 | 948.75 | 16.21
288.15 K, x1 = 0.2998 | 3.45 | 996.05 | 29.71
288.15 K, x1 = 0.4001 | 2.35 | 1028.84 | 51.08
288.15 K, x1 = 0.4997 | 1.21 | 1052.44 | 81.84
288.15 K, x1 = 0.5998 | 0.95 | 1067.26 | 120.8
288.15 K, x1 = 0.7002 | 0.685 | 1077.84 | 166.5
288.15 K, x1 = 0.7999 | 0.496 | 1085.72 | 215
288.15 K, x1 = 0.8999 | 0.378 | 1093.78 | 264.8
288.15 K, x1 = 1 | 0.255 | 1099.81 | 316.5
293.15 K, x1 = 0.1002 | 5.5 | 880.24 | 5.454
293.15 K, x1 = 0.2002 | 4.67 | 945.16 | 11.9
293.15 K, x1 = 0.2998 | 3.84 | 992.52 | 22.12
293.15 K, x1 = 0.4001 | 2.64 | 1025.75 | 37.64
293.15 K, x1 = 0.4997 | 1.46 | 1049.28 | 58.62
293.15 K, x1 = 0.5998 | 1.16 | 1064.44 | 85.72
293.15 K, x1 = 0.7002 | 0.883 | 1075.11 | 117.1
293.15 K, x1 = 0.7999 | 0.639 | 1083.11 | 150.3
293.15 K, x1 = 0.8999 | 0.478 | 1090.97 | 183.5
293.15 K, x1 = 1 | 0.361 | 1096.75 | 215.8
298.15 K, x1 = 0.1002 | 5.83 | 876.09 | 3.864
298.15 K, x1 = 0.2002 | 5.05 | 941.45 | 8.717
298.15 K, x1 = 0.2998 | 4.27 | 988.89 | 16.33
298.15 K, x1 = 0.4001 | 2.98 | 1022.71 | 27.66
298.15 K, x1 = 0.4997 | 1.72 | 1046.39 | 42.09
298.15 K, x1 = 0.5998 | 1.4 | 1061.68 | 60.63
298.15 K, x1 = 0.7002 | 1.08 | 1072.2 | 82.01
298.15 K, x1 = 0.7999 | 0.789 | 1080.57 | 105
298.15 K, x1 = 0.8999 | 0.589 | 1088.08 | 128.8
298.15 K, x1 = 1 | 0.459 | 1093.67 | 151.9
303.15 K, x1 = 0.1002 | 6.16 | 871.55 | 2.697
303.15 K, x1 = 0.2002 | 5.43 | 937.88 | 6.468
303.15 K, x1 = 0.2998 | 4.71 | 985.24 | 12.26
303.15 K, x1 = 0.4001 | 3.36 | 1019.65 | 20.36
303.15 K, x1 = 0.4997 | 2.01 | 1043.41 | 30.78
303.15 K, x1 = 0.5998 | 1.67 | 1058.77 | 44.13
303.15 K, x1 = 0.7002 | 1.32 | 1069.41 | 59.49
303.15 K, x1 = 0.7999 | 0.973 | 1077.79 | 76.35
303.15 K, x1 = 0.8999 | 0.72 | 1085.29 | 93.37
303.15 K, x1 = 1 | 0.583 | 1090.61 | 110.1
